According to patent publication US10189863B2, “5,6-dihydro-4H-benzo[b]thieno-[2,3-d]azepine derivatives” (PULMOCIDE LIMITED, priority 2014, dated 2019):

Columns and labels:
[1] = tested on: hRSV/A/Long; experiment: RSV infection in cotton rats: virus titre in lung (plaque assay); type: in vivo, Sigmodon hispidus cotton rats; settings: for Virus titre in lung, Geometric mean: cotton rats, intranasal, day 4
[2] = tested on: RSV A2; experiment: RSV infection in mice: virus titre in lung (plaque assay); type: in vivo, mice (male BALB/C); settings: for Virus titre in lung, Geometric mean / Virus titre in lung, Median: mice, day 4
Protocol: Non-fasted mice (male BALB/C, 20-30 g) were infected intranasally with RSV A2 or virus diluent (DMEM, 2% FBS, 12.5% sucrose) under isoflurane (5% in O2) anaesthesia. The A2 strain of RSV (50 μL of 1.3×10^6 PFU/mL: final 0.65×10^5 PFU/mouse) was instilled into each nostril in a drop wise fashion alternating between the two until a volume of 50 μL was delivered. Following infection each animal was weighed on a daily basis to monitor changes. Test compounds were dissolved in 100% DMSO (at 20 mg/mL and/or 2 mg/mL), then diluted at 1:10 in isotonic saline to achieve 10% DMSO in all treatments. Formulations were then sonicated to produce a suspension. The suspension was administered intratracheally (20 μL) with a FMJ-250 PennCentury device or intranasally (40 μL) with a pipette on 1 day and 1 hr before infection (day 0), and then on days 1, 2 and 3 post infection. Four days after RSV challenge, the animals were euthanised (by intraperitoneal injection of a pentobarbitone overdose), the trachea cannulated and BALF extracted for total and differential cell counts. Following BALF collection, the right lung was removed from each animal and homogenised in ice-cold Dulbecco's modified Eagles medium (using 10 times the lung weight of DMEM containing 1% BSA and 25% sucrose) for 2×20 second bursts. The homogenate was then transferred into a sterile tube and spun at 4° C. (2000 rpm; for 5 min). The clarified homogenate was transferred to a chilled cryovial, snap frozen and stored at −80° C. The supernatants from lung homogenates were used for Plaque assay.
HEp2 cells were grown in 24-well plates (Corning) for 48 hr prior to infection in DMEM containing 10% FBS until they attained 100% confluency. Lung homogenate was thawed at RT and ten-fold serial dilutions were prepared in serum-free DMEM. The growth medium from HEp2 cells was aspirated and replaced with 300 μL of serially diluted lung homogenate and left to infect (4 hr; 37° C./5% CO2). The infectious media were aspirated and replaced with Plaque Assay Overlay (500 μL; 1% methylcellulose in MEM, 2% FBS, 1% Pen Strep, 0.5 μg/mL amphotericin B), and left for 7 days (37° C./5% CO2). Cells were fixed with ice-cold methanol for 10 min and blocked with 5% powdered milk (Marvel) in 0.05% PBS-tween (blocking buffer) for 1 hr at RT.
Anti-RSV F-protein antibody [2F7] (Abcam: ab43812) was diluted to a 1:100 concentration in blocking buffer and added to cells for 1 hr at RT with shaking. Cells were washed using PBS and then incubated with the secondary antibody (HRP conjugated goat anti-mouse secondary antibody (Dako P044701-2) diluted in 1:400 with blocking buffer) for 1 hr at RT with shaking. The secondary antibody solution was removed and cells were washed with PBS before the metal-enhanced development substrate DAB was prepared in ultra-pure water (according to manufacturer's instructions). Each well received 300 μL of development substrate (sigmaFAST D0426) until plaques were visible. Plaques were counted by eye and confirmed using light microscopy, allowing the calculation of plaque forming units per mL of lung homogenate supernatant.

[3] = intranasal, Drug Conc 0.2 mg/mL
[4] = intranasal, Drug Conc 2 mg/mL, LOQ 1.5
[5] = intratracheal, Drug Conc 0.2 mg/mL, LOQ 1.5

Question: `Cc1cnc(N2CC3(CCOCC3)C2)c(C(=O)Nc2ccc(C(=O)N3CCc4cc(C(=O)Nc5c(C)cccc5F)sc4-c4ccccc43)cc2)c1` [Example 5, N-(2-Fluoro-6-methylphenyl)-6-(4-(5-methyl-2-(7-oxa-2-azaspiro[3.5]nonan-2-yl)nicotinamido)benzoyl)-5,6-dihydro-4H-benzo[b]thieno[2,3-d]azepine-2-carboxamide] was tested. Which “Effect on virus titre in the lungs (in words)” value ([1]; RSV A2 infected cotton rats) did it give?
Answer: completely inhibited virus titre

Question: What about the “Virus titre in lung, Geometric mean” value ([1]; Drug Conc 1.0 mg/mL) of the same compound?
Answer: 4.5 log, PFU/lung

Question: What about the “Virus titre in lung, Geometric mean” value ([1]; Drug Conc 3.3 mg/mL, LOQ 2.3) of the same compound?
Answer: <2.3^2 log, PFU/lung

Question: What about the “Effect on virus titre in lung homogenates (in words)” value ([1]; hRSV/A/Long infected cotton rats on day4) of the same compound?
Answer: potent dose-dependent inhibition of virus titre

Question: And the “Effect on virus titre in the lungs (in words)” value ([2]; RSV A2 infected mice)?
Answer: completely inhibited virus titre

Question: And the “Virus titre in lung, Geometric mean” value [2, 3]?
Answer: 2.4 log PFU/lung

Question: And the “Virus titre in lung, Median” value [2, 3]?
Answer: 2.5 log PFU/lung

Question: And the “Virus titre in lung, Geometric mean” value [2, 4]?
Answer: <1.5^2 log PFU/lung

Question: And the “Virus titre in lung, Median” value [2, 4]?
Answer: <1.5^2 log PFU/lung

Question: And the “Virus titre in lung, Geometric mean” value [2, 5]?
Answer: <1.5^2 log PFU/lung

Question: What about the “Virus titre in lung, Median” value [2, 5] of the same compound?
Answer: <1.5^2 log PFU/lung
